Assay results taken from BindingDB's records for doi:10.7270/Q2DN43GX (The Scripps Research Institute Molecular Screening Center, 2007).
pIC50: −log10 of the molar value.

Target: T1, Protein Rev [8-24] (Human immunodeficiency virus 1, UniProt P05866)
T1 construct: 8-24
Assay: inhibitors of Rev protein–RRE RNA complex – biochemical, protein-RNA interaction, dose response (AID 842)

Row | Compound | pIC50
1 | CC[n+]1c(CC=Nc2ccccc2)oc2ccccc21 [3-Ethyl-2-(2-phenylamino-vinyl)-benzooxazol-3-ium] | 5.25
2 | Cc1[nH]n(-c2ccccc2)c(=O)c1N=Nc1ccc(N)cc1 [4-(4-aminophenyl)azo-5-methyl-2-phenyl-4H-pyrazol-3-one] | < 4.10
